What was measured:
Test in all cases: relative viability (nuclei count vs DMSO), 5 days (fraction); higher = more cells survive
[1] = compound: C1COCCN1C2=CC(=O)C3=C(O2)C(=CC=C3)C4=CC=CC5=C4SC6=CC=CC=C56
Method in brief: (§1)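 Cells of lung cancer lines were placed in 1536-well plates and kept overnight at 37 °C. Pinning then delivered five library-drug doses (not always all listed), spaced by √10, onto plates anchored with vehicle, and the cells were left 5 days without changing medium. One step fixed, permeabilised and stained them with Hoechst, and MetaXpress counted nuclei in 4× images. Viability, as a median over plates, is treated-well nuclei divided by vehicle-well nuclei, with acceptance only at control CV below 25% and at least one doubling.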

[2] = compound: CCN(CC)CCCCNc1ncc2cc(-c3cc(OC)cc(OC)c3)c(NC(=O)NC(C)(C)C)nc2n1
Method in brief: as §1

PRIMA-1MET = compound: COCC1(CO)C(=O)C2CCN1CC2 [PRIMA-1MET]
Method in brief: as §1

Zibotentan = compound: COc1nc(C)cnc1NS(=O)(=O)c1cccnc1-c1ccc(-c2nnco2)cc1 [Zibotentan]
Method in brief: as §1

[3] = compound: O=c1cc(-c2cccc3c2Sc2ccccc2S3)oc(N2CCOCC2)c1
Method in brief: as §1

Cell Line	relative viability ([1]; 0.01 µM)	relative viability ([1]; 0.03162 µM)	relative viability ([1]; 0.1 µM)	relative viability ([1]; 0.3162 µM)	relative viability ([1]; 1 µM)	relative viability ([2]; 0.01 µM)	relative viability ([2]; 0.03162 µM)	relative viability ([2]; 0.1 µM)	relative viability ([2]; 0.3162 µM)	relative viability ([2]; 1 µM)	relative viability (PRIMA-1MET; 0.2 µM)	relative viability (PRIMA-1MET; 0.6325 µM)	relative viability (PRIMA-1MET; 2 µM)	relative viability (PRIMA-1MET; 6.325 µM)	relative viability (PRIMA-1MET; 20 µM)	relative viability (Zibotentan; 0.08 µM)	relative viability (Zibotentan; 0.253 µM)	relative viability (Zibotentan; 0.8 µM)	relative viability (Zibotentan; 2.53 µM)	relative viability ([3]; 0.08 µM)	relative viability ([3]; 0.253 µM)	relative viability ([3]; 0.8 µM)	relative viability ([3]; 2.53 µM)	relative viability ([3]; 8 µM)
NCI-H520	1.08	1.06	0.98	1.02	0.955	0.962	1	0.965	0.763	0.306	1.09	0.722	0.678	0.817	0.163	1.14	0.924	0.801	1.15	0.95	1.2	1.12	0.906	0.997
NCI-H522	1.09	0.992	0.889	1.21	0.984	1.11	1.05	0.914	0.96	0.907	0.888	0.804	0.921	0.886	0.279	0.839	0.957	0.904	0.867	0.888	1.01	0.798	0.908	0.967
NCI-H596	0.999	0.984	0.916	1.02	0.939	0.973	1.06	0.992	0.915	0.858	0.981	0.875	0.857	1.14	0.224	0.842	1.01	1.07	1.12	0.947	1.08	1.04	0.916	0.979
NCI-H647	0.911	0.918	0.867	1.05	0.986	0.94	1	1.04	1.1	0.903	1.11	0.824	0.783	1.04	0.762	0.964	0.83	0.887	0.993	0.937	1.2	1.02	0.855	1.01
NCI-H650	0.909	1.07	–	1.08	0.884	0.836	0.926	1.19	0.983	0.888	1.24	–	0.913	1.03	0.128	1.02	0.792	0.988	0.912	0.979	0.857	1.01	0.76	1.1
NCI-H661	0.965	1.01	0.98	0.991	0.969	1.06	1	1.03	1.09	0.993	1.03	0.917	0.991	1	0.957	1.01	0.912	0.951	0.987	0.996	1	0.948	0.942	0.951
NCI-H727	0.91	0.858	0.874	0.888	0.958	0.985	0.978	0.94	1.07	0.882	1.01	0.865	0.625	0.615	0.331	0.847	0.872	0.966	1.01	0.908	1.08	0.758	0.899	0.924

— the supplement of paper PMC10307832
